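Where inhibition never reached the appropriate level, the endpoint shown equals the highest concentration tested. Otherwise, values were interpolated linearly from a five-concentration, 48-hour dose response in 96-well plates. GI50 is the concentration that inhibits growth by half.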 Active and inactive are the calls of the source. Cut-off read from the data, not from the text of the source: active = GI50 up to about 1.1 µM and inactive = higher.
Legend:
Test in all cases: DTP human tumour cell line panel, 48 h
OVCAR-3 = system: OVCAR-3
DLD-1 = system: DLD-1
HCC 2998 = system: HCC 2998
DMS-114 = system: DMS-114
MCF7 = system: MCF7
Malme-3M = system: Malme-3M
DMS-273 = system: DMS-273
NCI-H226 = system: NCI-H226
SNB-78 = system: SNB-78
XF498 = system: XF498
HOP-18 = system: HOP-18
SNB-75 = system: SNB-75
KM-20L2 = system: KM-20L2
K562 = system: K562
ACHN = system: ACHN
PC-3 = system: PC-3
SR = system: SR
Hs-578T = system: Hs-578T
TK-10 = system: TK-10
M14 = system: M14

| Compound | GI50 (OVCAR-3) | GI50 (DLD-1) | GI50 (HCC 2998) | GI50 (DMS-114) | GI50 (MCF7) | GI50 (Malme-3M) | GI50 (DMS-273) | GI50 (NCI-H226) | GI50 (SNB-78) | GI50 (XF498) | GI50 (HOP-18) | GI50 (SNB-75) | GI50 (KM-20L2) | GI50 (K562) | GI50 (ACHN) | GI50 (PC-3) | GI50 (SR) | GI50 (Hs-578T) | GI50 (TK-10) | GI50 (M14) |
| --- | --- | --- | --- | --- | --- | --- | --- | --- | --- | --- | --- | --- | --- | --- | --- | --- | --- | --- | --- | --- |
| Nc1c(S(=O)(=O)O)cc2cc(S(=O)(=O)O)ccc2c1/N=N/c1ccc(-c2ccc(/N=N/c3c(N)c(S(=O)(=O)O)cc4cc(S(=O)(=O)O)ccc34)c(S(=O)(=O)O)c2)cc1 | 71.3 µM (inactive) | > 100 µM (inactive) | > 100 µM (inactive) | > 100 µM (inactive) | 22.8 µM (inactive) | > 100 µM (inactive) | > 100 µM (inactive) | > 81.3 µM (inactive) | 97.7 µM (inactive) | > 64.6 µM (inactive) | > 100 µM (inactive) | 85.5 µM (inactive) | 66.4 µM (inactive) | > 100 µM (inactive) | – | – | – | – | – | – |
| COc1cc2cc3c4cc(OC)c(OC)cc4cc[n+]3cc2cc1OC | > 45.5 µM (inactive) | > 100 µM (inactive) | > 30.6 µM (inactive) | 1 µM (active) | > 31.6 µM (inactive) | > 100 µM (inactive) | > 100 µM (inactive) | 71.4 µM (inactive) | > 74.3 µM (inactive) | > 100 µM (inactive) | > 100 µM (inactive) | > 89.3 µM (inactive) | > 57.4 µM (inactive) | > 100 µM (inactive) | – | – | – | – | – | – |
| CC(C)N1CSC(=S)N(Cc2ccccc2)C1 | 3.87 µM (inactive) | – | > 10 µM (inactive) | – | 4.16 µM (inactive) | – | – | – | – | – | – | 2.8 µM (inactive) | – | 2.48 µM (inactive) | > 10 µM (inactive) | 3.75 µM (inactive) | 1.64 µM (inactive) | > 10 µM (inactive) | 3.61 µM (inactive) | – |
| CSc1nc(SC)c2cnn(CC3CO3)c2n1 (stereo not given) | 25.1 µM (inactive) | 22.3 µM (inactive) | 17.4 µM (inactive) | 17.4 µM (inactive) | 9.44 µM (inactive) | 23.5 µM (inactive) | 22.8 µM (inactive) | 17.9 µM (inactive) | – | 22.4 µM (inactive) | 20.9 µM (inactive) | 17.3 µM (inactive) | 18.2 µM (inactive) | 26.5 µM (inactive) | – | – | – | – | – | – |
| COc1ccc(NC(=O)C(=O)C(C(=O)c2ccccc2)C2OC(=O)c3ccccc32)c([N+](=O)[O-])c1 (stereo not given) | – | > 100 µM (inactive) | > 100 µM (inactive) | > 100 µM (inactive) | – | > 100 µM (inactive) | > 100 µM (inactive) | > 100 µM (inactive) | > 100 µM (inactive) | > 100 µM (inactive) | > 100 µM (inactive) | > 100 µM (inactive) | > 100 µM (inactive) | > 100 µM (inactive) | > 100 µM (inactive) | – | > 100 µM (inactive) | – | > 100 µM (inactive) | > 100 µM (inactive) |
| O=C(NN1C(=O)C(Cl)C1c1ccc([N+](=O)[O-])cc1)c1ccccc1O (stereo not given) | > 100 µM (inactive) | – | – | > 100 µM (inactive) | – | 43 µM (inactive) | – | – | – | 93.1 µM (inactive) | – | 51.8 µM (inactive) | > 100 µM (inactive) | > 100 µM (inactive) | – | – | > 100 µM (inactive) | – | > 100 µM (inactive) | > 100 µM (inactive) |
| Nc1nc2cc(COc3ccc(C(=O)O)cc3)ccc2nc1-c1ccccc1 | > 10 µM (inactive) | – | > 10 µM (inactive) | – | > 10 µM (inactive) | – | – | > 10 µM (inactive) | – | – | – | > 10 µM (inactive) | – | > 10 µM (inactive) | > 10 µM (inactive) | > 10 µM (inactive) | > 10 µM (inactive) | > 10 µM (inactive) | > 10 µM (inactive) | > 10 µM (inactive) |
| c1ccc(C(c2ccccc2)[P+](c2ccccc2)(c2ccccc2)c2ccccc2)cc1 | 0.336 µM (active) | 2.1 µM (inactive) | 0.365 µM (active) | 0.324 µM (active) | 0.449 µM (active) | 0.726 µM (active) | 0.349 µM (active) | 0.684 µM (active) | 0.612 µM (active) | 0.214 µM (active) | 0.369 µM (active) | 0.467 µM (active) | 0.374 µM (active) | 0.427 µM (active) | – | – | – | – | – | – |
| CCOC(=O)C1=C(C)N(NC(N)=O)C2(O)CCCC(=O)C12C (stereo not given) | > 100 µM (inactive) | 94.4 µM (inactive) | > 100 µM (inactive) | > 100 µM (inactive) | – | > 100 µM (inactive) | > 100 µM (inactive) | > 100 µM (inactive) | > 100 µM (inactive) | > 100 µM (inactive) | > 100 µM (inactive) | > 100 µM (inactive) | > 100 µM (inactive) | – | > 100 µM (inactive) | – | > 10 µM (inactive) | – | > 100 µM (inactive) | > 100 µM (inactive) |
| CCOC(=O)C1=C(C)N(c2ccc(OC)cc2)C2(O)C=CC(O)=C3C(=O)c4ccccc4C(=O)C312 (stereo not given) | 3.06 µM (inactive) | – | – | – | 6.03 µM (inactive) | < 0.01 µM (active) | – | – | – | – | – | – | – | 12.6 µM (inactive) | 14.3 µM (inactive) | 5.53 µM (inactive) | – | 5.47 µM (inactive) | 11 µM (inactive) | 9.75 µM (inactive) |
| CC1(c2sccc2Cl)CC(c2sccc2Cl)=C(C#N)C(=C(C#N)C#N)N1 (stereo not given) | 14.9 µM (inactive) | – | 14.5 µM (inactive) | – | 22.8 µM (inactive) | 17.6 µM (inactive) | – | – | – | – | – | – | – | – | 18.5 µM (inactive) | 18.7 µM (inactive) | – | 21.5 µM (inactive) | 17.2 µM (inactive) | 18.6 µM (inactive) |
| COc1cccc2c1C(=O)c1c(O)c3c(c(O)c1C2=O)CC(O)(C(=O)CO)CC3OC1CC(N)C(I)C(C)O1 (stereo not given) | > 33.4 µM (inactive) | 2.54 µM (inactive) | 13.5 µM (inactive) | 1.63 µM (inactive) | 1.17 µM (inactive) | 6.05 µM (inactive) | 0.424 µM (active) | 0.787 µM (active) | 25.7 µM (inactive) | 6.64 µM (inactive) | 7.96 µM (inactive) | 2.52 µM (inactive) | 7.18 µM (inactive) | 4.76 µM (inactive) | – | – | – | – | – | – |
| CC(=O)NNc1nc(C)c(C(=O)NNC(=O)C(=O)Nc2ccc([N+](=O)[O-])cc2[N+](=O)[O-])s1 | – | > 100 µM (inactive) | > 100 µM (inactive) | 30.1 µM (inactive) | – | – | > 100 µM (inactive) | > 100 µM (inactive) | > 100 µM (inactive) | > 100 µM (inactive) | – | 47.5 µM (inactive) | > 100 µM (inactive) | 39.4 µM (inactive) | > 100 µM (inactive) | – | 81.1 µM (inactive) | – | > 100 µM (inactive) | > 100 µM (inactive) |
